Like-named read-outs stand apart in the source and are kept apart here.
Key:
Assay type in all cases: in vivo
[1] = test system: pigweed (Amaranthus retroflexus); test: Test A pre-/postemergence greenhouse herbicide test, visual injury rating 0-100; conditions: for pest or weed control at 500 g/ha: 500 g ai/ha
How it was run: (§1)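 Greenhouse plants received compound either as directed soil spray at planting or as postemergence spray at the one- to two-leaf stage (2–10 cm). Evaluated after about 10 days by visual comparison with untreated controls.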

[2] = test system: morningglory (Ipomoea spp.); test: as above; conditions: for pest or weed control at 500 g/ha: 500 g ai/ha
How it was run: as §1

[3] = test system: velvetleaf (Abutilon theophrasti); test: as above; conditions: for pest or weed control at 500 g/ha: 500 g ai/ha
How it was run: as §1

[4] = test system: wheat (Triticum aestivum); test: as above; conditions: for plant injury at 500 g/ha: 500 g ai/ha
How it was run: as §1

[5] = test system: barnyardgrass (Echinochloa crus-galli); test: as above; conditions: for pest or weed control at 500 g/ha: 500 g ai/ha
How it was run: as §1

[6] = test system: giant foxtail (Setaria faberii); test: as above; conditions: for pest or weed control at 500 g/ha: 500 g ai/ha
How it was run: as §1

corn (Zea mays) = test: as above; conditions: for plant injury at 500 g/ha: 500 g ai/ha
How it was run: as §1

[7] = test system: large (Lg) crabgrass (Digitaria sanguinalis); test: as above; conditions: for pest or weed control at 500 g/ha: 500 g ai/ha
How it was run: as §1

[8] = test system: ragweed (common ragweed, Ambrosia elatior); test: Test C pre-/postemergence greenhouse test, plant response rating 0-100; conditions: Ambrosia artemisiifolia, post-emergence, Postemergence
From the text: Seeds of plant species selected from blackgrass (Alopecurus myosuroides), Italian ryegrass (Lolium multiflorum), winter wheat (Triticum aestivum), galium (catchweed bedstraw, Galium aparine), corn (Zea mays), large (Lg) crabgrass (Digitaria sanguinalis), giant foxtail (Setaria faberii), johnsongrass (Sorghum halepense), lambsquarters (Chenopodium album), morningglory (Ipomoea coccinea), yellow nutsedge (Cyperus esculentus), pigweed (Amaranthus retroflexus), ragweed (common ragweed, Ambrosia elatior), soybean (Glycine max), barnyardgrass (Echinochloa crus-galli), oilseed rape (Brassica napus), waterhemp (common waterhemp, Amaranthus rudis), and velvetleaf (Abutilon theophrasti) were planted into a blend of loam soil and sand and treated preemergence with test chemicals formulated in a non-phytotoxic solvent mixture which included a surfactant.
At the same time, plants selected from these crop and weed species and also winter barley (Hordeum vulgare), bermudagrass (Cynodon dactylon), downy bromegrass (Bromus tectorum), canarygrass (Phalaris minor), cocklebur (common cocklebur, Xanthium strumarium), woolly cupgrass (Eriochloa villosa), deadnettle (henbit deadnettle, Lamium amplexicaule), green foxtail (Setaria viridis), goosegrass (Eleusine indica), surinam grass (Brachiaria decumbens), windgrass (Apera spica-venti), chickweed (common chickweed, Stellaria media), kochia (Kochia scoparia), and wild oat (Avena fatua), were planted in pots containing Redi-Earth® planting medium (Scotts Company, 14111 Scottslawn Road, Marysville, Ohio 43041) comprising spaghnum peat moss, vermiculite, wetting agent and starter nutrients and treated with postemergence applications of test chemicals formulated in the same manner. Plants ranged in height from 2 to 18 cm (1- to 4-leaf stage) for postemergence treatments. Treated plants and controls were maintained in a greenhouse for 13 to 15 days, after which time all species were compared to controls and visually evaluated. Plant response ratings, summarized in Table C, are based on a scale of 0 to 100 where 0 is no effect and 100 is complete control. A dash (-) response means no test result.

CCOC(OCC)(c1ccccc1)c1c[nH]nc1-c1cc(Cl)cc(Cl)c1 [Compound 14, 3-(3,5-dichlorophenyl)-4-(diethoxyphenylmethyl)-1H-pyrazole]
pest or weed control at 125 g/ha ([1]; Amaranthus retroflexus, post-emergence, 240 h, Postemergence, 125 g ai/ha, read-out: Plant response rating (0 to 100 scale), Pigweed): 80%
pest or weed control at 500 g/ha ([1]; Amaranthus retroflexus, post-emergence, 240 h, Postemergence, read-out: Plant response rating (0 to 100 scale), Pigweed): 90%
pest or weed control at 500 g/ha ([1]; Amaranthus retroflexus, pre-emergence, 240 h, Preemergence, read-out: Plant response rating (0 to 100 scale), Pigweed): 100%
Pigweed plant response rating (0 = no effect, 100 = complete control) ([1]; Preemergence, 125 g ai/ha): 70
pest or weed control at 125 g/ha ([2]; Ipomoea, post-emergence, 240 h, Postemergence, 125 g ai/ha, read-out: Plant response rating (0 to 100 scale), Morningglory): 0%
pest or weed control at 500 g/ha ([2]; Ipomoea, post-emergence, 240 h, Postemergence, read-out: Plant response rating (0 to 100 scale), Morningglory): 0%
pest or weed control at 500 g/ha ([2]; Ipomoea, pre-emergence, 240 h, Preemergence, read-out: Plant response rating (0 to 100 scale), Morningglory): 0%
Morningglory plant response rating (0 = no effect, 100 = complete control) ([2]; Preemergence, 125 g ai/ha): 0
pest or weed control at 125 g/ha ([3]; Abutilon theophrasti, post-emergence, 240 h, Postemergence, 125 g ai/ha, read-out: Plant response rating (0 to 100 scale), Velvetleaf): 80%
pest or weed control at 500 g/ha ([3]; Abutilon theophrasti, post-emergence, 240 h, Postemergence, read-out: Plant response rating (0 to 100 scale), Velvetleaf): 90%
pest or weed control at 500 g/ha ([3]; Abutilon theophrasti, pre-emergence, 240 h, Preemergence, read-out: Plant response rating (0 to 100 scale), Velvetleaf): 100%
Velvetleaf plant response rating (0 = no effect, 100 = complete control) ([3]; Preemergence, 125 g ai/ha): 50
Wheat plant response rating (0 = no effect, 100 = complete control) ([4]; Preemergence, 125 g ai/ha): 0
plant injury at 125 g/ha ([4]; Triticum aestivum, post-emergence, 240 h, Postemergence, 125 g ai/ha, read-out: Plant response rating (0 to 100 scale), Wheat): 0%
plant injury at 500 g/ha ([4]; Triticum aestivum, post-emergence, 240 h, Postemergence, read-out: Plant response rating (0 to 100 scale), Wheat): 0%
plant injury at 500 g/ha ([4]; Triticum aestivum, pre-emergence, 240 h, Preemergence, read-out: Plant response rating (0 to 100 scale), Wheat): 0%
pest or weed control at 125 g/ha ([5]; Echinochloa crus-galli, post-emergence, 240 h, Postemergence, 125 g ai/ha, read-out: Plant response rating (0 to 100 scale), Barnyardgrass): 0%
pest or weed control at 500 g/ha ([5]; Echinochloa crus-galli, post-emergence, 240 h, Postemergence, read-out: Plant response rating (0 to 100 scale), Barnyardgrass): 0%
pest or weed control at 500 g/ha ([5]; Echinochloa crus-galli, pre-emergence, 240 h, Preemergence, read-out: Plant response rating (0 to 100 scale), Barnyardgrass): 0%
Barnyardgrass plant response rating (0 = no effect, 100 = complete control) ([5]; Preemergence, 125 g ai/ha): 0
Foxtail, Giant plant response rating (0 = no effect, 100 = complete control) ([6]; Preemergence, 125 g ai/ha): 0
pest or weed control at 125 g/ha ([6]; Setaria faberi, post-emergence, 240 h, Postemergence, 125 g ai/ha, read-out: Plant response rating (0 to 100 scale), Foxtail, Giant): 0%
pest or weed control at 500 g/ha ([6]; Setaria faberi, post-emergence, 240 h, Postemergence, read-out: Plant response rating (0 to 100 scale), Foxtail, Giant): 0%
pest or weed control at 500 g/ha ([6]; Setaria faberi, pre-emergence, 240 h, Preemergence, read-out: Plant response rating (0 to 100 scale), Foxtail, Giant): 0%
Corn plant response rating (0 = no effect, 100 = complete control) (corn (Zea mays); Preemergence, 125 g ai/ha): 0
plant injury at 125 g/ha (corn (Zea mays); Zea mays, post-emergence, 240 h, Postemergence, 125 g ai/ha, read-out: Plant response rating (0 to 100 scale), Corn): 0%
plant injury at 500 g/ha (corn (Zea mays); Zea mays, post-emergence, 240 h, Postemergence, read-out: Plant response rating (0 to 100 scale), Corn): 0%
plant injury at 500 g/ha (corn (Zea mays); Zea mays, pre-emergence, 240 h, Preemergence, read-out: Plant response rating (0 to 100 scale), Corn): 0%
pest or weed control at 125 g/ha ([7]; Digitaria sanguinalis, post-emergence, 240 h, Postemergence, 125 g ai/ha, read-out: Plant response rating (0 to 100 scale), Crabgrass, Large): 0%
pest or weed control at 500 g/ha ([7]; Digitaria sanguinalis, post-emergence, 240 h, Postemergence, read-out: Plant response rating (0 to 100 scale), Crabgrass, Large): 0%
pest or weed control at 500 g/ha ([7]; Digitaria sanguinalis, pre-emergence, 240 h, Preemergence, read-out: Plant response rating (0 to 100 scale), Crabgrass, Large): 0%
Crabgrass, Large plant response rating (0 = no effect, 100 = complete control) ([7]; Preemergence, 125 g ai/ha): 0
pest or weed control at 62 g/ha ([8]; 62 g ai/ha, read-out: Plant response rating (0 to 100), Ragweed): 60%
pest or weed control at 125 g/ha ([8]; 125 g ai/ha, read-out: Plant response rating (0 to 100), Ragweed): 70%
pest or weed control at 250 g/ha ([8]; 250 g ai/ha, scale 0 to 100): 75%
pest or weed control at 500 g/ha ([8]; 500 g ai/ha, scale 0 to 100): 80%

From US10167262B2, “Herbicidal substituted 3-arylpyrazoles” (FMC CORPORATION, priority 2014, dated 2019)
